Reference: patent publication US11007182B2, “Use of atpenin to activate innate immunity” (Health Research, Inc., priority 2015, dated 2021)

Legend:
Type in all cases: cell-based, human
[1] = system: monocyte-enriched PBMCs; assay: Oxygen consumption assay (oxygen-quenched fluorescent dye) in monocyte-enriched PBMCs; conditions: averages from 3 donors' monocyte-enriched PBMCs
Procedure: (§1) FIG. 6. Inhibition of complex II reduces oxygen consumption and antagonizes HIF-1. […] DMSO indicates the untreated vehicle control. […] The oxygen levels are measured by a fluorescent dye, which is quenched by oxygen (i.e., more fluorescence, less oxygen). Results are averages from 3 donors' monocyte-enriched PBMCs with SEMs shown in dashed lines.
(§2) We used primary human monocytes and 293T HEK cells to investigate their response to hypoxia and to cell-permeable complex II inhibitors (atpenin A5, TTFA) using cell culture methods, high throughout RNA sequencing, qPCR, immunoblotting and oxygen consumption assays.

[2] = system: APOBEC3A-mediated RNA editing; assay: SDHB c.136C>U site-specific RNA editing assay (RT-PCR) in monocyte-enriched PBMCs; conditions: for induction of APOBEC3A-mediated RNA editing in normoxia / effect on hypoxia-induced RNA editing: atpenin A5 1-3 μM, DMOG 1 mM, myxothiazol 1 μM; for induction of APOBEC3A-mediated RNA editing in normoxia: TTFA 1 mM; for effect on hypoxia-induced RNA editing: hypoxia 1% O2
Procedure: Peripheral blood mononuclear cells of anonymous platelet donors were isolated from peripheral blood in Trima Accel™ leukoreduction system chambers (Terumo BCT®, Lakewood, Colo.) after thrombocytapheresis, in accordance with a protocol approved by the institutional review board of Roswell Park Cancer Institute. A density gradient centrifugation method using polysucrose-containing Lymphocyte Separation Medium (Mediatech®, Manassas, Va.) was used for PBMC isolation. MEPs were prepared from PBMCs using the well-established cold aggregation method with slight modification (Mentzer et al 1986). Briefly, PBMCs were subjected to gentle rocking at 4° C. for an hour and aggregated cells that sedimented through fetal bovine serum (FBS; VWR®, Radnor, Pa.) were collected as MEPs (monocyte-enriched PBMCs) after 0.5-3 hours for high monocyte enrichment (˜70% monocytes as assessed by immunofluorocytometry for CD14), or after 8-16 hours for mild enrichment (˜20%-40% monocytes). MEPs were cultured at a density of at least 20 million per ml in 1 or 2 ml per well of 6- or 12-well standard tissue culture plates under 5% CO2 in RPMI-1640 medium (Mediatech®) with 10% FBS, and 100 U per ml penicillin and 100 μg per ml streptomycin (Mediatech®). CD14 positive monocytes were separated in certain experiments from MEPs that were initially cultured for 1 or 2 days using magnetic beads and donut-shaped magnet (EasySep cell isolation kit purchased from STEMCELL Technologies).
For hypoxia, cells were cultured under 1% O2, 5% CO2 and 94% N2 in an XVIVO SYSTEM® (a cell culture system) (Biospherix®, Lacona, N.Y.). ‘Universal’ type I IFN, a hybrid of N-terminal IFNα-2 and C-terminal IFNα-1, produced in E. coli were obtained from PBL Assay Science® (Piscataway, N.J.), and respectively used at 300 U per ml. Unless noted otherwise, hypoxia and/or interferon treatments were for 24 hours. Differential viability of MEPs after 1-day culture in normoxia versus hypoxia was not observed as evaluated by Trypan blue stain.
SDHB c.136C>U site-specific RNA editing, catalyzed by APOBEC3A cytidine deaminase, was quantified by RT-PCR as described (Baysal et al 2013). Total RNA, genomic DNA and plasmid DNA were isolated using material and methods provided with TRIzol™, DNA Wizard Genomic DNA Purification Kit (Promega®), and Plasmid Kit (Qiagen®, Germantown, Md.), respectively. RNA/DNA was quantified by spectrophotometry on a Nanodrop™ 2000 instrument (Thermo Fisher®). Proteins were quantified using Bio-Rad® Dc™ assay with bovine serum albumin standards. Statistical tests were two-tailed and were performed using R 3.0, Excel™ 2010 (Microsoft®, Redmond, Wash.), or Prism™ 6.0 (GraphPad®, San Diego, Calif.) software.
Atpenin A5 is purchased from Cayman Chemical (CAS 119509-24-9), dissolved in DMSO and used in final concentrations of 1-3 μM in culture. DMOG (dimethyloxalylglycine; CAS 89464-63-1) and myxothiazol (CAS 76706-55-3) are purchased from Sigma-Aldrich, dissolved in DMSO and used in final concentrations of 1 mM and 1 μM, respectively.

[3] = system: HIF1α; assay: HIF1α stabilization (immunoblotting) in 293T cells; conditions: for HIF1α stabilization in mild hypoxia: 6% O2
Procedure: as §1, §2

[4] = system: hypoxia-related gene expression in monocytes; assay: RNA seq and RT-qPCR of hypoxic gene expression in monocytes
Text: FIG. 4. AtA5 treatment in normoxia induces hypoxic gene expression in monocytes.
as §2
On the contrary, AtA5 reduces cellular oxygen consumption in peripheral blood mononuclear cells and inhibits HIF-la stabilization in mildly hypoxic conditions in 293T cells (FIG. 6).

[5] = system: HIF1α; assay: HIF1α stabilization (immunoblotting) in CD14 negative lymphocytes and CD14 positive monocytes; conditions: FIG. 5
Text: FIG. 5. HIF1α is stabilized in CD14 negative lymphocytes, but not in CD14 positive monocytes in hypoxia (H, 1% O2, day 1). […] CD14± cells are unsorted PBMCs.
as §2

Compound	oxygen consumption relative to control cells [1]	induction of APOBEC3A-mediated RNA editing in normoxia ([2]; normoxia, MEPs)	HIF1α stabilization in mild hypoxia ([3]; 293T cells, day 1)	HIF1α stabilization in normoxia in lymphocytes and monocytes [5]	effect on hypoxia-induced RNA editing ([2]; MEPs)	other results
antimycin A	completely inhibit oxygen consumption					
O=C(CC(=O)C(F)(F)F)c1cccs1 [TTFA, thenoyltrifluoroacetone]		induces RNA editing in normoxia				
COc1[nH]c(=O)c(C(=O)[C@@H](C)C[C@H](C)[C@@H](Cl)CCl)c(O)c1OC [atpenin A5]	reduces oxygen consumption relative to control cells (blue), but does not abolish it	induced APOBEC3A-mediated RNA editing in normoxia	inhibits HIF1α stabilization in mild hypoxia	does not stabilize HIF1α in normoxia in lymphocytes or monocytes	without inhibiting the hypoxia-induced RNA editing	HIF-1α stabilization in normoxia in 293T cells ([3]; normoxic treatment, 293T embryonic kidney cells, FIG. 6): does not stabilize HIF-la; effect on A3A-mediated RNA editing or transcript induction in hypoxic monocytes ([4]; hypoxic monocytes): does not inhibit A3A-mediated RNA editing or transcript induction in hypoxic monocytes; expression of hypoxia-related and pro-angiogenic genes (RT-qPCR) ([4]; normoxic treatment of monocytes): causes upregulation of many hypoxia-related and pro-angiogenic genes including VEGFA, CXCL8 (IL8) and CXCR4; transcriptome-scale changes (RNA seq and RNA editing analyses) ([4]; normoxic treatment of monocytes, FIG. 4): closely mimics the hypoxia effects in inducing transcriptome-scale changes; cell population in which induced RNA editing occurs ([2]; CD14 positive and CD14 negative cells separated from MEPs after culture): induced RNA editing occurs in CD14+ monocytes; RNA editing levels induced in normoxia relative to hypoxic stimulation ([2]; normoxia versus hypoxia, FIG. 1): comparable to levels observed upon hypoxic stimulation; effect on RNA editing in combination with interferon ([2]; normoxia, MEPs, type I IFN 300 U per ml): synergistic effect with interferon-induced RNA editing levels; monocyte-enriched PBMCs from donors (biological replicates) with normoxic induction of RNA editing ([2]; normoxia, p=0.00013, two-sided Wilcoxon pairwise test): 19 of 19
CO/C(=C/C(N)=O)[C@H](C)[C@H](/C=C/c1csc(-c2csc([C@@H](C)/C=C/C=C/C(C)C)n2)n1)OC [myxothiazol]	completely inhibit oxygen consumption	did not induce RNA editing in normoxia	inhibits it both in mild and severe hypoxia		inhibited hypoxia-induced RNA editing	HIF1α stabilization in severe hypoxia ([3]; 1% O2, 293T cells, day 1): inhibits it both in mild and severe hypoxia
COC(=O)CNC(=O)C(=O)OC [DMOG, dimethyloxalylglycine]		did not induce RNA editing in normoxia		stabilizes HIF1α in both lymphocytes and monocytes	inhibited hypoxia-induced RNA editing	
